Measured values: patent US20260315462A1, “METHODS OF TREATING RELAPSING MULTIPLE SCLEROSIS USING AN INHIBITOR OF BRUTON'S TYROSINE KINASE” (Genentech, Inc., priority 2023, published 2026)
Converted amounts (≈) assume the structure as drawn.

Assays:
[1] = test system: new gadolinium-enhancing T1 (T1Gd+) lesions on brain MRI; experiment: New gadolinium-enhancing T1 (T1Gd+) lesions on brain MRI, Phase II RMS study (primary endpoint); assay type: in vivo, human
Description: (§1) This Phase II study was undertaken to evaluate the effect of fenebrutinib on brain magnetic resonance imaging (MRI) in participants with RMS. Participants were randomized to receive either fenebrutinib or placebo. In addition to MRI evaluations, participants were also monitored for other clinical outcomes of disease, including disability progression and MS relapse, as described more fully below.
(§2) Study Design: This clinical trial comprised a double-blind treatment (DBT) phase, where participants were randomized in a 2:1 ratio to receive either 200 mg BID oral fenebrutinib or non-active placebo, administered for 12 weeks. Participants were directed to self-administer two 100 mg tablets in the morning and two 100 mg tablets in the evening by mouth, for a total dose of 400 mg of fenebrutinib (or placebo) every day.
(§3) A total of 109 adults aged 18-55 with RMS were enrolled in the study: 73 in the fenebrutinib arm, and 36 in the placebo arm. […] Accordingly, the analysis of outcome for the double blind phase of the study included 70 patients in the fenebrutinib arm, and 36 patients in the placebo arm.
MRI Measurements: The primary efficacy endpoint for this study was the total number of new gadolinium-enhancing T1 (T1Gd+) lesions on brain MRI measured at Weeks 4, 8, and 12 of administration. The secondary efficacy outcomes were (1) the total number of new or enlarging T2-weighted lesions on brain MRI measured at Weeks 4, 8, and 12, and (2) the proportion of participants free from any new Gd-enhancing T1 lesions and new or enlarging T2-weighted lesions observed on brain MRI at Weeks 4, 8, and 12. Radiologic evaluation for the primary efficacy parameter was performed using a standardized MRI protocol at screening, and at Weeks 4, 8, and 12 for each participant. […]
Results: Primary Endpoint (Total Number of New T1 Gd+ Lesions at Weeks 4, 8, and 12, combined): The primary endpoint of this study was met. In the treatment arm (n=70), a 69% relative reduction in new T1 Gd+ lesions was observed, compared to placebo, with a p value of 0.0022. FIG. 2 provides bar graphs illustrating some of the data in these tables, and providing additional analyses. In this figure, the large arrows indicate the relative reduction (95% confidence interval) of lesions. The proportion of patients with new T1 Gd+ lesions is the number of participants that have a new lesion at that specific visit alone divided by the number of participants with a scan at that specific visit alone at the indicated week. […] There was a 90% reduction and only 3.2% of patients with new T1 Gd+ Lesions lesions at Week 12.

[2] = test system: inflammatory cytokine production from myeloid cells (including TNF-α); settings: in vitro cell-based experiments; cited from earlier work
[3] = test system: new Gd-enhancing T1 lesions and new or enlarging T2-weighted lesions on brain MRI; experiment: Proportion of participants free from any new Gd-enhancing T1 lesions and new or enlarging T2-weighted lesions on brain MRI, Phase II RMS study (secondary endpoint); assay type: in vivo, human
Description: as §1, §2, §3
MRI Measurements: The primary efficacy endpoint for this study was the total number of new gadolinium-enhancing T1 (T1Gd+) lesions on brain MRI measured at Weeks 4, 8, and 12 of administration. The secondary efficacy outcomes were (1) the total number of new or enlarging T2-weighted lesions on brain MRI measured at Weeks 4, 8, and 12, and (2) the proportion of participants free from any new Gd-enhancing T1 lesions and new or enlarging T2-weighted lesions observed on brain MRI at Weeks 4, 8, and 12. Radiologic evaluation for the primary efficacy parameter was performed using a standardized MRI protocol at screening, and at Weeks 4, 8, and 12 for each participant.
Results: Secondary Endpoint-Proportion of Participants Free from any new Gd+ Enhancing T1 Lesions and New or Enlarging T2-weighted Lesions at Weeks 4, 8, and 12: This secondary endpoint was also met, and a summary of the analysis provided in Table 8.

[4] = Safety: adverse events in Phase II RMS study; assay type: in vivo, human; settings: for Patients with ≥1 AE, %: 200 mg BID oral, 12 weeks, placebo 33.3
Description: as §2, §3
Results—Safety Summary: A summary of adverse events (AEs) for patients treated with fenebrutinib, and with placebo, is provided in Table 12.

[5] = test system: CD69 expression on B cells; settings: in vitro human whole blood assay; previously presented Weber M S, et al. AAN 2021; cited from earlier work
[6] = test system: BCR-dependent B-cell proliferation; settings: in vitro cell-based experiments; cited from earlier work
BTK = settings: anti-IgM induced BTK Y223 autophosphorylation in human whole blood; previously presented Keaney J, et al. 2019; cited from earlier work
[7] = test system: CD63 expression on myeloid lineage cells (basophils); settings: in vitro human whole blood assay; previously presented Weber M S, et al. AAN 2021; cited from earlier work
[8] = most common AEs, n = 73, placebo 0
[9] = most common AEs, n = 73, placebo 2.8

In the case of C[C@H]1CN(C2COC2)CCN1c1ccc(Nc2cc(-c3ccnc(N4CCn5c(cc6c5CC(C)(C)C6)C4=O)c3CO)cn(C)c2=O)nc1 [Fenebrutinib, (S)-2-(3′-(hydroxymethyl)-1-methyl-5-((5-(2-methyl-4-(oxetan-3-yl)piperazin-1-yl)pyridin-2-yl)amino)-6-oxo-1,6-dihydro-[3,4′-bipyridin]-2′-yl)-7,7-dimethyl-2,3,4,6,7,8-hexahydro-1H-cyclopenta[4,5]pyrrolo[1,2-a]pyrazin-1-one], the “Number of New T1 Gd+ Lesions, Mean (SD), Week 4” value ([1]; 200 mg BID oral, Week 4, n = 70, min-max 0-4, placebo 0.389 (0.871)) was 0.343 (0.849), the “Number of New T1 Gd+ Lesions, Mean (SD), Week 8” value ([1]; 200 mg BID oral, Week 8, n = 67, min-max 0-3, placebo 0.441 (0.960)) was 0.045 (0.367) and the “Number of New T1 Gd+ Lesions, Mean (SD), Week 12” value ([1]; 200 mg BID oral, Week 12, n = 63, min-max 0-1, placebo 0.273 (0.674)) was 0.032 (0.177). For the same compound, the “Total Number of New T1Gd+ Lesions” value ([1]; 200 mg BID oral, Weeks 4, 8, and 12 combined, N = 70, 201 scans, placebo 38) was 29, the “New T1Gd+ Lesion rate, adjusted” value ([1]; 200 mg BID oral, Weeks 4, 8, and 12 combined, Negative Binomial regression model, placebo 0.245) was 0.077 and the “New T1Gd+ Lesion rate, unadjusted” value ([1]; 200 mg BID oral, Weeks 4, 8, and 12 combined, total lesions divided by total number of scans, placebo 0.369) was 0.144. The “proportion of patients with new T1 Gd+ lesions, Week 12” value ([1]; Week 12, participants with a new lesion at that visit divided by participants with a scan at that visit) was 3.2%, the “patients with new T1 Gd+ lesions after week four” value ([1]; after week four of treatment) was “Few patients had new lesions after week four of treatment” and the “Relative Reduction of total number of new T1 Gd+ lesions, Week 4” value ([1]; vs placebo, Week 4, 95% CI −92%, 68%) was 22%. The “Relative Reduction of total number of new T1 Gd+ lesions, Week 8” value ([1]; vs placebo, Week 8, 95% CI 65%, 98%) was 92%, the “Relative Reduction of total number of new T1 Gd+ lesions, Week 12” value ([1]; vs placebo, Week 12, 95% CI 52%, 98%) was 90% and the “Rate Ratio, adjusted (new T1Gd+ lesions)” value ([1]; vs placebo, Weeks 4, 8, and 12 combined, 95% CI (0.149, 0.658)) was 0.313. For the same compound, the “Relative Reduction in new T1 Gd+ lesions” value ([1]; vs placebo, Weeks 4, 8, and 12 combined, 95% CI (34%, 85%), p-value 0.0022) was 69%, the “Relative Reduction of total number of new T1 Gd+ lesions, Weeks 8 and 12” value ([1]; vs placebo, Weeks 8 and 12) was 92% and the “inflammatory cytokine production from myeloid cells” value [2] was “reduction of inflammatory cytokine production from myeloid cells”. For the same compound, the “No. of patients free from T1 Gd+ and T2-weighted lesions, Week 4” value ([3]; Week 4, N = 70, placebo 21 of 36) was 51, the “Proportion free from new T1 Gd+ and new or enlarging T2-weighted lesions, Week 4” value ([3]; Week 4, N = 70, placebo 58.3%) was 72.9% and the “No. of patients free from T1 Gd+ and T2-weighted lesions, Week 8” value ([3]; Week 8, N = 67, placebo 20 of 34) was 63. For the same compound, the “Proportion free from new T1 Gd+ and new or enlarging T2-weighted lesions, Week 8” value ([3]; Week 8, N = 67, placebo 58.8%) was 94.0%, the “No. of patients free from T1 Gd+ and T2-weighted lesions, Week 12” value ([3]; Week 12, N = 63, placebo 24 of 33) was 61 and the “Proportion free from new T1 Gd+ and new or enlarging T2-weighted lesions, Week 12” value ([3]; Week 12, N = 63, placebo 72.7%) was 96.8%. The “No. of patients who are free from new T1 Gd+ and New or Enlarging T2-weighted Lesions During DBT” value ([3]; overall, weeks 4, 8, and 12, N = 70, placebo 18) was 51, the “Proportion of patients free from new T1 Gd+ and new or enlarging T2-weighted lesions, overall” value ([3]; overall, weeks 4, 8, and 12, N = 70, placebo 50.0%) was 72.9% and the “Odds Ratio, adjusted (free from new T1 Gd+ and new or enlarging T2-weighted lesions)” value ([3]; vs placebo, weeks 4, 8, and 12, 95% CI (exact) (1.317, 13.078), p-value (exact) 0.0117) was 4.005. The “likelihood to be free from new T1 Gd+ lesions and new or enlarging T2-weighted lesions” value ([3]; weeks 4, 8, and 12, compared to placebo group) was “four times more likely to be free from new T1 Gd+ lesions and new or enlarging T2-weighted lesions”, the “Patients with ≥1 AE, %” value ([4]; n = 73) was 38.4% and the “Patients with ≥1 AE, %” value ([4]; n = 73, listed as FEN) was 38%. The “withdrawal: abnormal hepatic transaminase levels” value ([4]; discontinuation required by protocol) was 4, the AE grade ([4]; double-blind treatment phase) was “All AEs were Grade 1 or 2, except for two Grade 3 asymptomatic liver transaminase level elevations” and the “AEs leading to withdrawal from the study” value ([4]; double-blind treatment phase) was “four AEs leading to withdrawal from the study”. For the same compound, the “serious AEs or deaths” value ([4]; double-blind treatment phase) was “No SAEs were reported”, the “serious AEs or deaths” value ([4]; double-blind treatment phase, listed as FEN) was “No serious AEs or deaths were reported” and the rate of infections ([4]; fenebrutinib vs placebo arms) was “balanced between the fenebrutinib and placebo arms”. The “hepatic transaminase level elevations, character” value ([4]; fenebrutinib-treated patients) was “reversible and asymptomatic”, the “withdrawal: hypersensitivity” value ([4]; in vivo) was 1 and the “withdrawal: upper abdominal pain” value ([4]; in vivo) was 1. The “withdrawal: upper abdominal pain; nausea and headache” value ([4]; in vivo) was 1, the “Abnormal hepatic enzyme levels, %” value [4, 8] was 5.5% and the “Nasopharyngitis, %” value [4, 8] was 2.7%. The “Upper abdominal pain, %” value [4, 8] was 2.7%, the “Headache, %” value [4, 9] was 4.1% and the “Nausea, %” value [4, 9] was 2.7%. For the same compound, the “Pharyngitis, %” value [4, 9] was 2.7%, the “Urinary tract infection, %” value ([4]; most common AEs, n = 73, placebo 5.6) was 5.5% and the “Patients with ≥1 AE leading to dose interruption, n (%)” value ([4]; n = 73) was 0. For the same compound, the “Patients with ≥1 AE with fatal outcome, n (%)” value ([4]; n = 73) was 0, the “Patients with ≥1 SAE, n (%)” value ([4]; n = 73) was 0 and the “Patients with ≥1 Grade 3 AE, %” value ([4]; n = 73, placebo 0) was 2.7%. For the same compound, the “Patients withdrawn from study due to an AE, %” value ([4]; n = 73, placebo 0) was 9.6%, the “Patients with ≥1 Related AE, %” value ([4]; n = 73, placebo 5.6) was 13.7% and the “Total no. of AEs” value ([4]; n = 73, placebo 19) was 40. For the same compound, the “IC90, CD69 (B-cell activation marker)” value [5] was 0.0432 µg/mL (≈ 0.065 µM), the “BCR-dependent B-cell proliferation” value [6] was “inhibition of BCR-dependent B-cell proliferation” and the “IC90, phospho-BTK” value (BTK) was 0.0404 µg/mL (≈ 0.0608 µM). The “IC90, CD63 (myeloid lineage cell activation marker)” value [7] was 0.0412 µg/mL (≈ 0.062 µM).
